Measurements from patent US10759796B2, “CXCR4 inhibitors and uses thereof” (X4 Pharmaceuticals, Inc., priority 2016, dated 2020).

How the values were obtained:
[1] = target: CXCR-4 transfected U87 cell line (U87.CXCR4) (Homo sapiens (Human), UniProt P61073); test: Intracellular CXCL-12-induced calcium mobilization assay (FLIPR); format: cell-based; details: U87.CXCR4 cells, CXCL-12 25-50 ng/mL; read-out: IC50 CXCL-12 Ca2+ flux U87.CXCR4+
Method: Example 28: REGA Screening Assay
Intracellular CXCL-12-Induced Calcium Mobilization Assay
Intracellular calcium mobilization induced by chemokines or chemokine-derived peptides were evaluated using a calcium responsive fluorescent probe and a FLIPR system. The CXCR-4 transfected U87 cell line (U87.CXCR4) cells were seeded in gelatine-coated black-wall 96-well plates at 20,000 cells per well and incubated for 12 hours. Cells were then loaded with the fluorescent calcium probe Fluo-2 acetoxymethyl at 4 μM final concentration in assay buffer (Hanks' balanced salt solution with 20 mM HEPES buffer and 0.2% bovine serum albumin, pH 7.4) for 45 min at 37° C. The intracellular calcium mobilization induced by the CXCL-12 (25-50 ng/mL) was then measured at 37° C. by monitoring the fluorescence as a function of time in all the wells simultaneously using a fluorometric imaging plate reader (FLIPR Tetra, Molecular Devices).

[2] = target: Jurkat cells expressing CXCR4 (Homo sapiens (Human), UniProt P61073); test: Chemokine (CXCL12-AF647) binding inhibition assay; details: CXCL12-AF647 25 ng/mL, read-out: IC50 CXCL-12 binding Jurkat
Method: Chemokine (CXCL12-AF647) Binding Inhibition Assay
Jurkat cells expressing CXCR4 were washed once with assay buffer (Hanks' balanced salt solution with 20 mM HEPES buffer and 0.2% bovine serum albumin, pH 7.4) and then incubated for 15 min at room temperature with the test compounds diluted in assay buffer at dose-dependent concentrations. Subsequently, CXCL12-AF647 (25 ng/mL) was added to the compound-incubated cells. The cells were incubated for 30 min at room temperature. Thereafter, the cells were washed twice in assay buffer, fixed in 1% paraformaldehyde in PBS, and analyzed on the FL4 channel of a FACSCalibur flow cytometer equipped with a 635-nm red diode laser (Becton Dickinson, San Jose, Calif., USA).
The percentages of inhibition of CXCL12-AF647 binding were calculated according to the formula: [1−((MFI−MFINC)/(MFIPC−MFINC))]×100 where MFI is the mean fluorescence intensity of the cells incubated with CXCL12-AF647 in the presence of the inhibitor, MFINC is the mean fluorescence intensity measured in the negative control (i.e., autofluorescence of unlabeled cells), and MFIPC is the mean fluorescence intensity of the positive control (i.e., cells exposed to CXCL12-AF647 alone).

in vitro = details: human, Caco-2, pH 7.4
Method: Example 28: Caco-2 Permeability Assay
The goal of this assay was to evaluate the intestinal absorption potential of drug candidates using Caco-2 cell lines.
1. Prewarm Prewarm HBSS Buffer in 37° C. water bath
2. Sonicate Take compounds from −20° C., sonicate for a few minutes (no less than 1 minute)
HBSS buffer with 0.3% DMSO and 5 μM LY: add 150 μL DMSO and 50 μL LY (5 mM) into 50 ml HBSS buffer (pH 7.4).
HBSS buffer with 0.1% DMSO and 5 μM LY: add 50 μL DMSO and 50 μL LY (5 mM) into 50 mL HBSS buffer (pH 7.4).
HBSS buffer with 0.3% DMSO: add 150 μL DMSO into 50 ml HBSS buffer (pH 7.4).
HBSS buffer with 0.1% DMSO: add 50 μL DMSO into 50 ml HBSS buffer (pH 7.4).
Receiver Solution Buffer:
Prepare HBSS buffer with 0.4% DMSO: add 200 μL DMSO into 50 ml HBSS buffer (pH 7.4).
Prepare HBSS buffer with 0.4% DMSO and 5 μM LY: add 200 μL DMSO and 50 μL LY (5 mM) into 50 ml HBSS buffer (pH 7.4).
4. Measure TEER Take cell culture plate out of incubator, wash the cell monolayers with HBSS buffer, and then measure TEER values at Rm temperature. 5. Centrifuge Centrifuge the compound solution (from step 3) at 4000 rpm for 5 min before loading to donor chambers. 6. Dosing Add solution based on the volumes listed in the following table (make sure to take extra 100 μL of donor sample for TO as Backup).
7. Apical LYT0 Samples To determine LY concentration in the apical chember, take 100 μL sample from apical chambers into an opaque plate for LYT0. 8. Prewarm Prewarm apical and basolateral plates at 37° C. for about 5 min, then begin transport by placing the apical plate onto basolateral plate. 9. Incubation Keep the plates in incubator at 37° C. for 90 min. 10. Standard Curve Preparation
For 300 μM compound solution, add 6 μL of compound stock solution into 192 μL of MeOH/H2O (1:1).
Prepare Working Solution in MeOH/H2O (1:1)
3 μL (20×)+57 μL of 0.4% DMSO HBSS+60 μL ACN with IS (Osalmid or Imipramine) - - - 120 μL (1×)
11. Transport Termination Separate the apical plate from the basolateral plate after 90-min incubation.
12. Measure LY Take 100 μL samples from basolateral plate to an opaque plate as LYT90.
13. Measure LY concentrations for LYT0 and LYT90 by Fluorometer (at excitation of 485 nm/emission of 535 nm).
Study details: Test concentration 10 μM
Test systems: Caco-2/HBSS solution
Incubation conditions: 0, 90 min at 37° C.
Sample size: Duplicates (n=2)
Bioanalytical method: LC-MS/MS
For Millicell-24 Cell Culture Plates: surface area of the membrane=0.7 cm^2, VA=0.8 mL (A-to-B) or 0.4 mL (B-to-A)
1. Papp values were calculated based on calculated concentrations.
The compound numbers correspond to the compound numbers in Table 1.

Sequence of Jurkat cells expressing CXCR4 (P61073 whole entry): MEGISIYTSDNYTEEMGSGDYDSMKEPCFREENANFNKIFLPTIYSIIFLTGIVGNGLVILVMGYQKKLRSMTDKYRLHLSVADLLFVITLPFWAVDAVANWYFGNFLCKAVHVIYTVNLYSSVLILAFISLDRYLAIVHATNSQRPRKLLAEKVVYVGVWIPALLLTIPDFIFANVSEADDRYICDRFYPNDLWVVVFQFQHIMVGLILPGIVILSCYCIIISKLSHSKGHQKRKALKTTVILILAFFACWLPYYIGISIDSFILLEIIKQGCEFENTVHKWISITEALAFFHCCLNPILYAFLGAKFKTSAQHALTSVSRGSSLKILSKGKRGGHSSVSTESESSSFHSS
Sequence of CXCR-4 transfected U87 cell line (U87.CXCR4) (P61073 whole entry): as above

SMILES | IC50 [1] [nM] | IC50 [2] [nM] | Papp A→B at 90 min, 10 μM (in vitro) [×10⁻⁶ cm/s] | Papp B→A at 90 min, 10 μM (in vitro) [×10⁻⁶ cm/s] | efflux ratio at 90 min, 10 μM (in vitro)
Cc1cccnc1[C@@H]1CCC[C@H](c2cn3c(N4CCNC5(CC5)C4)cccc3n2)N1C [Compound I-156] | 0.01 to 100 | 0.01 to 100 | 0.1 to 10 | 10 to 30 | 0.1 to 10
Clc1cccnc1[C@@H]1CCC[C@H](c2cn3c(N4CCNC5(CC5)C4)cccc3n2)N1 [Compound I-166] | ≥ 1000 | 100 to 1000 | 10 to 30 | 10 to 30 | 0.1 to 10
Cc1cccnc1[C@@H]1CCC[C@H](c2cn3c(N4CCN(CC(F)(F)F)CC4)cccc3n2)N1C [Compound I-14] | 100 to 1000 | 100 to 1000 | 10 to 30 | 10 to 30 | 0.1 to 10
Cc1cccnc1[C@@H]1CCC[C@H](c2cn3ccccc3n2)N1Cc1ccccc1-n1cccn1 [Compound I-16] | 0.01 to 100 | 0.01 to 100 | 10 to 30 | 10 to 30 | 0.1 to 10
CN1CC2CCC(C1)N2c1cccc2nc([C@H]3CCC[C@@H](c4ncccc4Cl)N3)cn12 [Compound I-182] | ≥ 1000 | 0.01 to 100 | 10 to 30 | 10 to 30 | 0.1 to 10
Cc1cccnc1[C@@H]1CCC[C@H](c2cn3c(N4CCN(C)CC4)c(F)ccc3n2)N1C [Compound I-106] | 0.01 to 100 | 0.01 to 100 | 0.1 to 10 | 10 to 30 | 0.1 to 10
Cc1cccnc1[C@@H]1CCC[C@H](c2cn3c(N4CCC(N(C)C)CC4)cccc3n2)N1C [Compound I-78] | 0.01 to 100 | 0.01 to 100 | 0.1 to 10 | 10 to 30 | > 30

Second part, the molecule after the results:

IC50 [1] [nM] | IC50 [2] [nM] | Papp A→B at 90 min, 10 μM (in vitro) [×10⁻⁶ cm/s] | Papp B→A at 90 min, 10 μM (in vitro) [×10⁻⁶ cm/s] | efflux ratio at 90 min, 10 μM (in vitro) | SMILES
0.01 to 100 | 0.01 to 100 | 0.1 to 10 | 0.1 to 10 | 0.1 to 10 | Cc1cccnc1[C@@H]1CCC[C@H](c2nc3cccc(N4CCN(C)CC4)n3c2Cl)N1C(C)C [Compound I-127]
100 to 1000 | 0.01 to 100 | 0.1 to 10 | 0.1 to 10 | 0.1 to 10 | Cc1cccnc1[C@@H]1CCC[C@H](c2nc3cccc(N4CCN(C5CC5)CC4)n3c2Br)N1C [Compound I-67]
≥ 1000 | 0.01 to 100 | 0.1 to 10 | 0.1 to 10 | 0.1 to 10 | CC(C)N1CCN(c2cccc3nc([C@H]4CCC[C@@H](c5ncccc5Cl)N4C)c(Cl)n23)CC1 [Compound I-123]
0.01 to 100 | 0.01 to 100 | 0.1 to 10 | 10 to 30 | 0.1 to 10 | CN1CCN(c2cccc3nc([C@H]4CCC[C@@H](c5ncccc5C5CC5)N4C)cn23)CC1 [Compound I-79]
0.01 to 100 | 0.01 to 100 | 0.1 to 10 | 0.1 to 10 | 0.1 to 10 | Cc1cccnc1[C@@H]1CCC[C@H](c2nc3cccc(N4CCN(C)CC4)n3c2Br)N1C [Compound I-17]
0.01 to 100 | 0.01 to 100 | 0.1 to 10 | 10 to 30 | 10 to 30 | Cc1cccnc1[C@@H]1CCC[C@H](c2nc3cccc(N4CCN(C)CC4)n3c2C)N1C [Compound I-86]
0.01 to 100 | 0.01 to 100 | 0.1 to 10 | 10 to 30 | 0.1 to 10 | Cc1cccnc1[C@@H]1CCC[C@H](c2nc3cccc(N4CCN(C)CC4)n3c2COC2CC2)N1C [Compound I-85]
100 to 1000 | 0.01 to 100 | 0.1 to 10 | 10 to 30 | 0.1 to 10 | CC(C)c1cccnc1[C@@H]1CCC[C@H](c2cn3c(N4CCN(C)CC4)cccc3n2)N1C [Compound I-51]
